Test results taken from patent US12102086B2, “Antimicrobial peptide Spampcin56-86 from Scylla paramamosain and applications thereof” (XIAMEN UNIVERSITY, priority 2021, dated 2024).
Residues, ends and D or L forms follow the SMILES beside them.

How the values were obtained:
[1] = tested on: L. monocytogenes; test: MIC and MBC determination; type: cell-based, Listeria Monocytogenes; settings: CGMC NO. 1.10753, Gram-positive
[2] = tested on: E. faecalis; test: MIC and MBC determination; type: cell-based, Enterococcus Faecalis; settings: CGMC NO. 1.2135, Gram-positive
[3] = tested on: E. faecium; test: MIC and MBC determination; type: cell-based, Enterococcus Faecium; settings: CGMC NO. 1.131, Gram-positive
[4] = tested on: P. fluorescens; test: MIC and MBC determination; type: cell-based, Pseudomonas fluorescens; settings: CGMC NO. 1.3202, Gram-negative
[5] = tested on: S. aureus
[6] = tested on: S. epidermidis; settings: CGMC NO. 1.4260, Gram-positive
[7] = tested on: S. aureus QZ19132
[8] = tested on: P. aeruginosa; settings: CGMC NO. 1.2421, Gram-negative
[9] = tested on: A. baumannii; settings: CGMC NO. 1.6769, Gram-negative
[10] = tested on: A. sobria; settings: Gram-negative
[11] = tested on: A. hydrophila; settings: CGMC NO. 1.2017, Gram-negative
[12] = tested on: E. coli
[13] = tested on: E. tarda; settings: Gram-negative
[14] = tested on: A. baumannii QZ20142; settings: A. baumannii QZ20142, drug-resistant clinical isolate
[15] = tested on: A. baumannii QZ20143
[16] = tested on: F. oxysporum; settings: CGMC NO. 3.6785, fungi
[17] = tested on: F. solani; settings: CGMC NO. 3.5840, fungi

**Q.** `CC(C)C[C@H](NC(=O)CNC(=O)[C@H](Cc1c[nH]cn1)NC(=O)[C@H](C)NC(=O)[C@H](C)NC(=O)[C@H](CCCNC(=N)N)NC(=O)[C@@H](N)CCCNC(=N)N)C(=O)N[C@@H](CC(C)C)C(=O)N1CCC[C@H]1C(=O)N[C@@H](CCCNC(=N)N)C(=O)N[C@@H](CC(C)C)C(=O)N[C@@H](CCCNC(=N)N)C(=O)N[C@@H](C)C(=O)N1CCC[C@H]1C(=O)N1CCC[C@H]1C(=O)N1CCC[C@H]1C(=O)N[C@@H](Cc1ccccc1)C(=O)N[C@@H](Cc1c[nH]cn1)C(=O)N[C@@H](CCCCN)C(=O)N[C@@H](CCCNC(=N)N)C(=O)N[C@@H](CS)C(=O)N[C@H](C(=O)N[C@@H](CS)C(=O)N[C@@H](CC(C)C)C(=O)N[C@@H](CS)C(=O)N[C@@H](CCCNC(=N)N)C(=O)N[C@H](C(=O)N[C@@H](C)C(=O)N1CCC[C@H]1C(=O)N1CCC[C@H]1C(=O)N1CCC[C@H]1C(=O)O)[C@@H](C)O)C(C)C` [Spampcin56-86] (H-RRAAHGLLPRLRAPPPFHKRCVCLCRTAPPP-OH; N-terminus and C-terminus assumed) was tested. Which MBC [1] did it give?
**A.** Its MBC is 1.5-3^ μM.

**Q.** And the MIC [1]?
**A.** The MIC was 1.5-3^ μM.

**Q.** And the MBC [2]?
**A.** Its MBC is 1.5-3^ μM.

**Q.** And the MIC [2]?
**A.** Its MIC is 1.5-3^ μM.

**Q.** And the MBC [3]?
**A.** Its MBC is 1.5-3^ μM.

**Q.** What about the MIC [3] of the same compound?
**A.** The MIC was 0 to 1.5 µM.

**Q.** What about the MBC [4] of the same compound?
**A.** Its MBC is 1.5-3^ μM.

**Q.** What about the MIC [4] of the same compound?
**A.** The MIC was 1.5-3^ μM.

**Q.** And the MBC [5]?
**A.** Its MBC is 3 to 6 µM.

**Q.** And the MBC [6]?
**A.** The MBC was 3 to 6 µM.

**Q.** What about the MIC [6] of the same compound?
**A.** The MIC was 3 to 6 µM.

**Q.** And the MBC [7]?
**A.** Its MBC is 12 to 24 µM.

**Q.** What about the MBC [8] of the same compound?
**A.** The MBC was 3 to 6 µM.

**Q.** What about the MIC [8] of the same compound?
**A.** Its MIC is 1.5-3^ μM.

**Q.** What about the MBC [9] of the same compound?
**A.** The MBC was 3 to 6 µM.

**Q.** What about the MIC [9] of the same compound?
**A.** The MIC was 3 to 6 µM.

**Q.** What about the MBC [10] of the same compound?
**A.** Its MBC is 3 to 6 µM.

**Q.** What about the MIC [10] of the same compound?
**A.** The MIC was 3 to 6 µM.

**Q.** What about the MBC [11] of the same compound?
**A.** The MBC was 6 to 12 µM.

**Q.** What about the MIC [11] of the same compound?
**A.** The MIC was 6 to 12 µM.

**Q.** And the MBC [12]?
**A.** The MBC was 3 to 6 µM.

**Q.** What about the MIC [12] of the same compound?
**A.** The MIC was 3 to 6 µM.

**Q.** And the MBC [13]?
**A.** The MBC was 24 to 48 µM.

**Q.** And the MIC [13]?
**A.** Its MIC is 3 to 6 µM.

**Q.** What about the MBC [14] of the same compound?
**A.** The MBC was 3 to 6 µM.

**Q.** What about the MIC [14] of the same compound?
**A.** The MIC was 3 to 6 µM.

**Q.** What about the MIC [15] of the same compound?
**A.** The MIC was 3 to 6 µM.

**Q.** What about the MBC [16] of the same compound?
**A.** Its MBC is 3 to 6 µM.

**Q.** What about the MIC [16] of the same compound?
**A.** Its MIC is 3 to 6 µM.

**Q.** And the MBC [17]?
**A.** The MBC was 3 to 6 µM.

**Q.** And the MIC [17]?
**A.** The MIC was 1.5-3^ μM.
